The text below walks through data of patent publication US10842150B2, “Method of controlling Fusarium on potato using lower alkyl naphthalene” (1,4Group, Inc., priority 2018, dated 2020).

One assay concerns Fusarium wilt. The note with it: treatment of potato tuber; cited from earlier work.
Another assay concerns F. oxysporum. The assay can be described thus: Single spore isolate plates of F. oxysporum exposed to 1,4-DMN vapour; colony count and mycelium diameter. Format: cell-based, Fusarium oxysporum. An excerpt:
F. oxysporum was isolated from the surface of potato tuber using the Fusarium selective media Nash-Snider, to which cultures were transferred and maintained on nutritionally complex potato dextrose agar plates. DNA sequencing using selective primers NL1, NL2, ITS1F, and ITS2R confirmed the fungus to be F. oxysporum.
A single spore isolation technique was utilized to record the number and growth response of the spores treated with 1,4-DMN in comparison with the spores treated with water (i.e., the Control). Single spore isolate plates were contained in vacuum sealed chambers and incubated at a constant temperature of about 22° C., while exposed to 7.5 μl of 1,4-DMN via aerosol dispersion for four days. After a day of rest, the spores on each plate were measured and counted.
Potato skin scrapings were cultured on the Fusarium selective media Nash Snider Agar, and later transferred and maintained on nutritionally complex Potato Dextrose Agar (PDA) (Step 1.1 in FIG. 1). DNA isolations were performed on single spore isolates using a Power Soil DNA Isolation Kit (Step 1.2 in FIG. 1). Several primers as shown in FIG. 2 were studied for amplification of Fungal DNA. Fusarium selective primers NL1, NL2, ITS1F, and ITS2 allowed PCR amplification of fungal strains genomically similar to Fusarium. […] The DNA were sequenced, and the sequence data were analyzed using NCBI BLASTn sequence alignment (Step 1.4 in FIG. 1). […] The strain identified as F. oxysporum was then subjected to treatments of DMN (7.5 μl) in specialized airtight bins, and incubated at a constant temperature of about 25° C. for four days (Step 1.5 in FIG. 1). […] Then, colony quantity and mycelium diameter were determined (Step 1.6 in FIG. 1).

The subject of another assay is Fusarium spp. The note with it: two storage trials over two years; cited from earlier work.

Entries after “also recorded” stand apart in the source; their conditions may differ.

For the compound `c1ccc2ncccc2c1` [quinoline], in the assay with Fusarium wilt, the “effect in controlling Fusarium wilt development (in words)” value is reported as “limited effect”.

As for `N#Cc1c[nH]cc1-c1cccc2c1OC(F)(F)O2` [fludioxonil], in the assay on Fusarium wilt, the “effect in controlling Fusarium wilt development (in words)” value was “limited effect”.

Take `Cc1ccc(C)c2ccccc12` [1,4-DMN, 1,4-dimethyl naphthalene]: the “Average Colony mycelium diameter” value with F. oxysporum (7.5 μl 1,4-DMN via aerosol dispersion in sealed chamber, four days, about 22° C. / 25° C., Control 9.89 cm) was found to be 2.94 cm. Further, the “Average Colonies per Plate” value in the assay on F. oxysporum (7.5 μl 1,4-DMN, four days, Control 4.05) was found to be 4.125. In addition, the “Total Colonies” value in the assay on F. oxysporum (7.5 μl 1,4-DMN, four days, Control 162) was determined as 165. In the assay on F. oxysporum (exposure to 1,4-DMN for four days), the “mycelium growth of F. oxysporum versus untreated Control (in words)” value is on record as “slower mycelium diameter growth; also recorded: inhibition of mycelium growth”.

In the case of `CO/C=C(/C(=O)OC)c1ccccc1Oc1cc(Oc2ccccc2C#N)ncn1` [azoxystrobin], the “efficacy in suppressing tuber infection caused by Fusarium spp. (in words)” value (“efficacy” for short) in the assay on Fusarium spp. is reported as “moderately effective”.

Turning to `OP(O)O` [Phosphorous acid, phosphorous acid], the “efficacy” value with Fusarium spp. is reported as “moderately effective”.

`OO` [hydrogen peroxide]: the “efficacy” value in the assay with Fusarium spp. is listed as “moderately effective”.
